ChEMBL document CHEMBL4806970, “Degraders of cyclin-dependent kinase 12 (cdk12) and uses thereof” (2020)
Where “and” joins values, the source holds several entries; their conditions need not be identical. Equal entries are not always repeated. Calls of active or inactive are those of the source. The calls are words filed in the database; no cut-off is given here.

Assays:
[1] = target: T1, Protein cereblon/Cyclin-dependent kinase 12 (Homo sapiens) (UniProt Q9NYV4+Q96SW2); test: PROTAC activity at CRBN/CDK12 in human Jurkat cells assessed as induction of CDK12 degradation up to 500 nM incubated for 6 hrs by western blot analysis; assay type: cell-based; details: dose nM <=500, time 6.0 hrs
[2] = target: T1, Protein cereblon/Cyclin-dependent kinase 12 (Homo sapiens); test: PROTAC activity at CRBN/CDK12 in human Jurkat cells assessed as induction of CDK12 degradation at 100 nM incubated for 6 hrs by western blot analysis; assay type: cell-based
[3] = Half life in C57BL/6 mouse at 2 mg/kg, iv measured up to 8 hrs post-dosing; assay type: ADME, organism-based; details: in vivo
[4] = Cmax in C57BL/6 mouse at 2 mg/kg, iv measured up to 8 hrs post-dosing; assay type: ADME, organism-based; parameters: route intravenous, dose 2 mg/kg, time <=8; details: in vivo
[5] = AUClast in C57BL/6 mouse at 2 mg/kg, iv measured up to 8 hrs post-dosing; assay type: ADME, organism-based; parameters: route intravenous, dose 2 mg/kg, time <=8; details: in vivo
[6] = AUC(infinity) in C57BL/6 mouse at 2 mg/kg, iv measured up to 8 hrs post-dosing; assay type: ADME, organism-based; parameters: route intravenous, dose 2 mg/kg, time <=8; details: in vivo
[7] = AUC (extrapolated) in C57BL/6 mouse at 2 mg/kg, iv measured up to 8 hrs post-dosing; assay type: ADME, organism-based; details: in vivo

T1 sequence (Q96SW2 whole entry, looked up): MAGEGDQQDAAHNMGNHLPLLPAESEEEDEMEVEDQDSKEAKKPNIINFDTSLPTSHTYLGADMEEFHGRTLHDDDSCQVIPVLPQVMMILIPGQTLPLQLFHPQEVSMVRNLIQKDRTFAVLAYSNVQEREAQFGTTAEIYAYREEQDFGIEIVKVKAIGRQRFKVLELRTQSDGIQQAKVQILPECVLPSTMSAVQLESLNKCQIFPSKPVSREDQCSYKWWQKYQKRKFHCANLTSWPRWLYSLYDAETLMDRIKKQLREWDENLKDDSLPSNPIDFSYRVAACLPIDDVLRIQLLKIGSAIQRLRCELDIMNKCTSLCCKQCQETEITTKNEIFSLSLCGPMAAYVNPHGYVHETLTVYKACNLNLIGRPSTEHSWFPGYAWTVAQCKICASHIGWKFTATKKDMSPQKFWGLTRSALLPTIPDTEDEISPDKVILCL
T1 sequence (Q9NYV4 whole entry, looked up): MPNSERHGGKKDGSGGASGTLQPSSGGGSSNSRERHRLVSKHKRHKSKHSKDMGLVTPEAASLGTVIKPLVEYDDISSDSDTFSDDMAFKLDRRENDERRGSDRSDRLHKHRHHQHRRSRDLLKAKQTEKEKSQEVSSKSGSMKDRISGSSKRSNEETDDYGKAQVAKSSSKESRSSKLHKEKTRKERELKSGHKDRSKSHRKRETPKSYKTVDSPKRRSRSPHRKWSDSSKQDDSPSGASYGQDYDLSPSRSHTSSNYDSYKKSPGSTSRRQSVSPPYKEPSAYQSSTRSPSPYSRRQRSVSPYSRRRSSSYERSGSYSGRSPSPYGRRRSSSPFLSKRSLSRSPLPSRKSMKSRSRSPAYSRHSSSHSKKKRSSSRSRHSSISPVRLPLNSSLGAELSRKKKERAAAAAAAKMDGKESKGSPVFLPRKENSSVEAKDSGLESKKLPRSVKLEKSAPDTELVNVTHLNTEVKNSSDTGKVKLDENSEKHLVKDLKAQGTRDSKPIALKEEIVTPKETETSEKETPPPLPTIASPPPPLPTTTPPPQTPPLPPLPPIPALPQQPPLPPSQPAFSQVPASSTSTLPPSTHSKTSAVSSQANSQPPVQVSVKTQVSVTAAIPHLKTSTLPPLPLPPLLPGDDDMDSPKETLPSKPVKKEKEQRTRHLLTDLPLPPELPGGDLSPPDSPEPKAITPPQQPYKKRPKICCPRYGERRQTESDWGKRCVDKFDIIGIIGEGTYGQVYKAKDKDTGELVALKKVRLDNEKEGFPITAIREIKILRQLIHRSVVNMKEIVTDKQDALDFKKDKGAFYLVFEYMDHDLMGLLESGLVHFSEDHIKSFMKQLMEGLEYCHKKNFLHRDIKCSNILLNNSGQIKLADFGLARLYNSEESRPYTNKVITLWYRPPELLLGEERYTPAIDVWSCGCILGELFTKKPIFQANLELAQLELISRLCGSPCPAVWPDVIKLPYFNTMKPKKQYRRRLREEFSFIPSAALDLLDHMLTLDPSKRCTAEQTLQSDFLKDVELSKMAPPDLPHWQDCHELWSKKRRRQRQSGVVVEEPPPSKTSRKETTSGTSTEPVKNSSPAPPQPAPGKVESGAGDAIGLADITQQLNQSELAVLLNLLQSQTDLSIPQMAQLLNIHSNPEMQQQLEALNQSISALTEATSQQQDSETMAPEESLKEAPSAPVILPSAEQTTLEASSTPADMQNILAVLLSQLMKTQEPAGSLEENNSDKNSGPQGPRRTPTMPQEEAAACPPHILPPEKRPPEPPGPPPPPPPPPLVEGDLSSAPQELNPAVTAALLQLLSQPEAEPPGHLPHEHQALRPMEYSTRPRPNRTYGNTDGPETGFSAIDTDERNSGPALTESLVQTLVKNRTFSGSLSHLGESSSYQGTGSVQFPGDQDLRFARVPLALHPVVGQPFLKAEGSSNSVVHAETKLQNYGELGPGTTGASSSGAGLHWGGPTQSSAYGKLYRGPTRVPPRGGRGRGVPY

SMILES	Activity [1]	Activity [2] [%]	further results
O=C(COc1cccc2c1C(=O)N(C1CCC(=O)NC1=O)C2=O)NCCOCCOCCC(=O)N1CCC[C@@H](Nc2ncc(Cl)c(-c3c[nH]c4ccccc34)n2)C1 (some centres not stated)	inactive	–	–
O=C(COc1cccc2c1C(=O)N(C1CCC(=O)NC1=O)C2=O)NCCCCCCCN1CCN(c2cccc(C(=O)N3CCC[C@@H](Nc4ncc(Cl)c(-c5c[nH]c6ccccc56)n4)C3)c2)CC1 (some centres not stated)	inactive	–	–
O=C(COc1cccc2c1C(=O)N(C1CCC(=O)NC1=O)C2=O)NCCCCCN1CCN(c2ccc(C(=O)N3CCC[C@@H](Nc4ncc(Cl)c(-c5c[nH]c6ccccc56)n4)C3)cc2)CC1 (some centres not stated)	–	80	–
O=C(COc1cccc2c1C(=O)N(C1CCC(=O)NC1=O)C2=O)NCCCCCC(=O)N1CCC[C@@H](Nc2ncc(Cl)c(-c3c[nH]c4ccccc34)n2)C1 (some centres not stated)	inactive	–	–
O=C(COc1cccc2c1C(=O)N(C1CCC(=O)NC1=O)C2=O)NCCCN1CCN(c2ccc(C(=O)N3CCC[C@@H](Nc4ncc(Cl)c(-c5c[nH]c6ccccc56)n4)C3)cc2)CC1 (some centres not stated)	–	60	–
O=C(COc1cccc2c1C(=O)N(C1CCC(=O)NC1=O)C2=O)NCCOCCOCCOCCN1CCC[C@@H](Nc2ncc(Cl)c(-c3c[nH]c4ccccc34)n2)C1 (some centres not stated)	–	80	–
O=C(COc1cccc2c1C(=O)N(C1CCC(=O)NC1=O)C2=O)NCCOCCOCCN1CCC[C@@H](Nc2ncc(Cl)c(-c3c[nH]c4ccccc34)n2)C1 (some centres not stated)	inactive	–	–
O=C(COc1cccc2c1C(=O)N(C1CCC(=O)NC1=O)C2=O)NCCCCCCN1CCC(C(=O)N2CCC[C@@H](Nc3ncc(Cl)c(-c4c[nH]c5ccccc45)n3)C2)CC1 (some centres not stated)	–	80	–

More lines, main results first:

Activity [1]	Activity [2] [%]	SMILES	further results
inactive	–	Cc1ncsc1-c1ccc([C@H](C)NC(=O)[C@H]2C[C@H](O)CN2C(=O)[C@@H](NC(=O)CCCCCCCCCCN2CCC[C@@H](Nc3ncc(Cl)c(Nc4ccccc4S(=O)(=O)C(C)C)n3)C2)C(C)(C)C)cc1	–
–	80	O=C(COc1cccc2c1C(=O)N(C1CCC(=O)NC1=O)C2=O)NCCCCCCCN1CCC(C(=O)N2CCC[C@@H](Nc3ncc(Cl)c(-c4c[nH]c5ccccc45)n3)C2)CC1 (some centres not stated)	–
–	80	O=C(COc1cccc2c1C(=O)N(C1CCC(=O)NC1=O)C2=O)NCCCCCCN1CCC[C@@H](Nc2ncc(Cl)c(-c3c[nH]c4ccccc34)n2)C1 (some centres not stated)	–
inactive	–	O=C(COc1cccc2c1C(=O)N(C1CCC(=O)NC1=O)C2=O)NCCCCN1CCC[C@@H](Nc2ncc(Cl)c(-c3c[nH]c4ccccc34)n2)C1 (some centres not stated)	–
–	90	O=C(COc1cccc2c1C(=O)N(C1CCC(=O)NC1=O)C2=O)NCCCCCCCN1CCC[C@@H](Nc2ncc(Cl)c(-c3c[nH]c4ccccc34)n2)C1 (some centres not stated)	–
–	90	Cc1ncsc1-c1ccc([C@H](C)NC(=O)[C@@H]2C[C@@H](O)CN2C(=O)[C@@H](NC(=O)CCOCCOCCOCCN2CCC[C@@H](Nc3ncc(Cl)c(Nc4ccccc4S(=O)(=O)C(C)C)n3)C2)C(C)(C)C)cc1	–
inactive	–	O=C(COc1cccc2c1C(=O)N(C1CCC(=O)NC1=O)C2=O)NCCCCCN1CCC[C@@H](Nc2ncc(Cl)c(-c3c[nH]c4ccccc34)n2)C1 (some centres not stated)	–
–	90	Cc1ncsc1-c1ccc([C@H](C)NC(=O)[C@@H]2C[C@@H](O)CN2C(=O)[C@@H](NC(=O)CCCCCCCCCCN2CCC[C@@H](Nc3ncc(Cl)c(Nc4ccccc4S(=O)(=O)C(C)C)n3)C2)C(C)(C)C)cc1	half-life [3]: 2.21 h; Cmax [4]: 4570 ng/mL and 4.49 µM; AUC(0-t) at 8 h [5]: 5720 ng·h/mL and 5.61 µM·h; AUC(0-inf) [6]: 6140 ng·h/mL; %AUCextra [7]: 6.27%
–	90	CC(C)S(=O)(=O)c1ccccc1Nc1nc(N[C@@H]2CCCN(CCCCCCCNC(=O)COc3cccc4c3C(=O)N(C3CCC(=O)NC3=O)C4=O)C2)ncc1Cl (some centres not stated)	–
